Assay [1] addresses T1, mouse TGR5 (Mus musculus, UniProt Q80SS6).
T1 sequence (Q80SS6 1-329): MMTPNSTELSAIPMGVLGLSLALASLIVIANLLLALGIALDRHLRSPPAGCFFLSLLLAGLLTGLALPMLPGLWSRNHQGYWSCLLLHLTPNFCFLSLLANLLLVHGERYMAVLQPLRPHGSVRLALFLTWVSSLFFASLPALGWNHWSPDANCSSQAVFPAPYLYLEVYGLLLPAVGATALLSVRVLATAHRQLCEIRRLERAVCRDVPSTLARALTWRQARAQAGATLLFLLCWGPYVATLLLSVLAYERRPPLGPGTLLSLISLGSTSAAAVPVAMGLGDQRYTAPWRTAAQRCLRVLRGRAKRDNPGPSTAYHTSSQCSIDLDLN
In words: cAMP production in HEK-293 cells stably transfected with the mouse TGR5 gene (HTRF cAMP assay). It counts as cell-based. The arrangement: expressed in transfected cells. The protocol:
HEK-293 cells were obtained from ATCC and a clonal HEK-293 line overexpressing mouse TGR5 was prepared. Both were maintained in Dulbecco’s modified Eagle’s medium (DMEM) containing 10% fetal bovine serum (FBS) and penicillin /streptomycin. Mouse STC-1 cells were obtained from ATCC under agreement with the Cold Spring Harbor Laboratories and maintained in DMEM containing 10% FBS and penicillin /streptomycin. NCI-H716 cells were obtained from ATCC and were maintained in RPMI-1640 with 10% FBS. NCI-H716 cells were cultured in 96 well plate coated with Matrigel (BD). After 72 hours, cAMP production stimulated with TGR5 agonists was measured using HTRF cAMP assay kit (CISBIO). The level of cAMP in suspensions of STC-1 cells stimulated with increasing concentrations of TGR5 agonists was also determined. […] The production of GLP-1 was determined using a GLP-1 Assay (7–36) amide kit (Mesoscale Discovery) following the manufacturer’s instructions. […]
Compound 18 is a novel small molecule agonist of TGR5 developed by Eli Lilly and Company (MW = 508.62, Fig 2A). […] In order to determine potency of compound 18 for the mouse and human TGR5 receptor in cells with endogenous levels of receptor, we measured compound 18-stimulated cAMP production and GLP-1 secretion in both mouse (STC-1) and human (NCI-H716) enteroendocrine cell lines, that we have shown to express TGR5 natively (Fig 1). […]
(Changes in cAMP serve as a functional read-out for many G protein-coupled receptors.)

Assay [2] addresses T1, mouse TGR5. In words: cAMP production in STC-1 enteroendocrine cells (endogenous TGR5). It counts as cell-based. More on the design: in cells with endogenous levels of receptor; host or cells: STC-1 (mouse enteroendocrine). The note with it: for EC50: STC-1 cells. The protocol:
Both were maintained in Dulbecco’s modified Eagle’s medium (DMEM) containing 10% fetal bovine serum (FBS) and penicillin /streptomycin. Mouse STC-1 cells were obtained from ATCC under agreement with the Cold Spring Harbor Laboratories and maintained in DMEM containing 10% FBS and penicillin /streptomycin. […] NCI-H716 cells were cultured in 96 well plate coated with Matrigel (BD). After 72 hours, cAMP production stimulated with TGR5 agonists was measured using HTRF cAMP assay kit (CISBIO). The level of cAMP in suspensions of STC-1 cells stimulated with increasing concentrations of TGR5 agonists was also determined. After 2 day-culturing, GLP-1 secretion in Matrigel-differentiated NCI-H716 or STC-1 cells was induced by increasing concentrations of TGR5 agonists. The production of GLP-1 was determined using a GLP-1 Assay (7–36) amide kit (Mesoscale Discovery) following the manufacturer’s instructions. For both cAMP and GLP-1, the maximal response for each compound was set to 100% in each cell line.

In a further assay the target is T2, GPR119 (Homo sapiens, UniProt Q8TDV5).
T2 sequence (Q8TDV5 1-335): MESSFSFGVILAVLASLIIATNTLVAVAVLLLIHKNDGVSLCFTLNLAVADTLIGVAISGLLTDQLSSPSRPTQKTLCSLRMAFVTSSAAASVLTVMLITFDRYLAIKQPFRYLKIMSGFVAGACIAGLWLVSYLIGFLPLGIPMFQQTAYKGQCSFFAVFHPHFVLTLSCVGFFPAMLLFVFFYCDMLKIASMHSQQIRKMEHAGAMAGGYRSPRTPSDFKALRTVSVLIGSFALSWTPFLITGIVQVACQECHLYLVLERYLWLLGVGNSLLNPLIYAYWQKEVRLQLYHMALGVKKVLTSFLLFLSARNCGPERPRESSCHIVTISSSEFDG
In words: Selectivity: enteroendocrine GPCR GPR119.

The target of the next assay is T3, GPR120 (Homo sapiens, UniProt Q5NUL3).
T3 sequence (Q5NUL3 1-361): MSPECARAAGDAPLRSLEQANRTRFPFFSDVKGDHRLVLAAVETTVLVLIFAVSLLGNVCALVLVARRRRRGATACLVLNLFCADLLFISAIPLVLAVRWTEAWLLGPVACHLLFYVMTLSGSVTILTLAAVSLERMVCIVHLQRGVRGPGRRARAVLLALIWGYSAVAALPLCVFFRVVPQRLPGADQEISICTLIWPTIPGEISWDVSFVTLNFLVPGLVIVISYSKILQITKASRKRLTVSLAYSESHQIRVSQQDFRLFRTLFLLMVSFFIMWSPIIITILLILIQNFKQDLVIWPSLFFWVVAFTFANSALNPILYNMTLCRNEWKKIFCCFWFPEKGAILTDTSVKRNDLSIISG
The assay is described as follows: Selectivity: enteroendocrine GPCR GPR120.

From paper PMC4551797 (PLoS ONE, 2015) come the findings set out here.

For the compound `CC(=O)N1CCC(C(C)N(C(=O)COc2cccc3sc4nc(C)cn4c23)c2ccc(F)cc2)CC1` (stereo not shown) [compound 18], the EC50 (in general, the concentration giving half of the maximal effect) is 24.7 nM at mouse TGR5 [1] (HEK-293 cells over-expressing mouse TGR5, read-out: EC50, cAMP production); 24.7 nM at mouse TGR5 [1] (cAMP, unit inferred, x-axis in nM, read-out: EC50 HEK-293-mTGR5 (Fig 2B inset)); 580 nM at mouse TGR5 [2] (read-out: EC50, cAMP production); 580 nM at mouse TGR5 [2] (unit inferred, x-axis in nM, read-out: EC50 STC-1 (Fig 2C inset, cAMP)); above 125000 nM at GPR119; above 125000 nM on GPR120. Moreover, the “potency on the mouse versus the human TGR5 receptor” value at mouse TGR5 [2] (STC-1 versus NCI-H716 cells) is “more than 5 fold”.
